According to PubChem BioAssay (NCI):
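The compound was tested at five concentrations on cells cultured in 96-well plates, with a 48-hour exposure period. GI50 is the concentration that inhibits growth by half. The concentration for full growth arrest is given as TGI.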 Where a SMILES comes first, the peptide text is derived from it. [ ]: non-standard residue; d: D form. Ac5c = NC1(C(=O)O)CCCC1

Legend:
Experiment in all cases: NCI anticancer screen, dose series, 48 h
[1] = test system: SN12C renal
[2] = test system: HCC-2998 colon
[3] = test system: CCRF-CEM leukemia
[4] = test system: KM12 colon
[5] = test system: HOP-92 NSCLC
[6] = test system: UO-31 renal
[7] = test system: SK-MEL-2 melanoma
[8] = test system: A549 NSCLC
[9] = test system: NCI-H23 lung
[10] = test system: CAKI-1 renal

Row | Structure (SMILES) | GI50 [1] [µM] | TGI [1] [µM] | GI50 [2] [µM] | TGI [2] [µM] | GI50 [3] [µM] | TGI [3] [µM] | GI50 [4] [µM] | TGI [4] [µM] | GI50 [5] [µM] | TGI [5] [µM] | GI50 [6] [µM] | TGI [6] [µM] | GI50 [7] [µM] | TGI [7] [µM] | GI50 [8] [µM] | TGI [8] [µM] | GI50 [9] [µM] | TGI [9] [µM] | TGI [10] [µM] | GI50 [10] [µM]
1 | Nc1c(C(=O)c2ccc(Cl)cc2)sc(Nc2ccccc2)c1-c1nc2ccccc2s1 | > 20.2 | > 100 | > 100 | > 100 | 13.9 | > 100 | 0.812 | > 100 | 0.777 | 4.7 | 2.16 | > 100 | 3.89 | 21 | > 100 | > 100 | 1.64 | 18.5 | – | –
2 | NNC(=O)/C(=C/c1ccc(Cl)c(Cl)c1)NC(=O)c1ccccc1 | – | > 100 | – | > 100 | – | > 100 | – | > 100 | – | > 100 | – | > 100 | – | > 100 | – | > 100 | – | > 100 | – | –
3 | CC(=O)Nc1ccc(C(=O)NN2C(=O)C(Cl)C2c2ccc(Cl)cc2)cc1 (stereo unspecified) | – | > 100 | – | > 100 | – | > 100 | – | > 100 | – | 82.1 | – | > 100 | – | > 100 | – | > 100 | – | > 100 | – | –
4 | CC(=O)OCC1OC(N2C(=O)C(=O)c3cc(C)ccc32)C(OC(C)=O)C(OC(C)=O)C1OC(C)=O (stereo unspecified) | – | > 100 | – | – | – | > 100 | – | > 100 | – | > 100 | – | > 100 | – | > 100 | – | > 100 | – | > 100 | > 100 | –
5 | O=C1OC(CC(=O)c2ccc(Cl)c(Cl)c2)C(Cl)=C1Cl (stereo unspecified) | – | > 100 | – | > 100 | – | 62.5 | – | > 100 | – | – | – | > 100 | – | > 100 | – | > 100 | – | > 100 | > 100 | –
6 | COc1ccccc1N1C(=O)/C(=C/c2ccc(N(CCC#N)CCC#N)cc2C)N=C1c1cc([N+](=O)[O-])ccc1Cl | – | > 100 | – | > 100 | – | > 100 | – | > 100 | – | – | – | > 100 | – | > 100 | – | > 100 | – | > 100 | > 100 | –
7 | CC12OC(c3ccccc3)=CC(c3ccc(Cl)cc3)=C1C(c1ccccc1)=CC2=O (stereo unspecified) | > 100 | > 100 | 75.2 | > 100 | 56.2 | > 100 | 71.8 | > 100 | – | – | > 100 | > 100 | > 100 | > 100 | 89.1 | > 100 | 41.5 | > 100 | > 100 | > 100
8 | COc1ccc(-c2onc(-c3ccc([N+](=O)[O-])cc3)c2C2=NCCN2)cc1 | – | > 100 | – | > 100 | – | > 100 | – | > 100 | – | – | – | > 100 | – | > 100 | – | > 100 | – | > 100 | > 100 | –
9 | O=[N+]([O-])c1cc(Cl)c(Cl)c([N+](=O)[O-])c1Cl | – | – | – | – | 0.236 | > 100 | 1.44 | 2.97 | 1.92 | 3.76 | 1.17 | 2.45 | 1.8 | 3.37 | 1.78 | 3.65 | – | – | 0.36 | 0.184
10 | NC1(C(=O)NC2(C(=O)O)CCCC2)CCCC1 (H-[Ac5c]-[Ac5c]-OH) | – | > 100 | – | – | – | > 100 | – | > 100 | – | > 100 | – | > 100 | – | > 100 | – | > 100 | – | > 100 | > 100 | –
11 | O=C1c2ccccc2-c2cccc3ccc(Cc4ccc5ccccc5c4)c1c23 | – | > 100 | – | > 100 | – | > 100 | – | > 100 | – | > 100 | – | > 100 | – | > 100 | – | > 100 | – | > 100 | – | –
12 | Cc1cc(C)c([O-])c(CN(C)CCN(C)Cc2cc(C)cc(C)c2[O-])c1.O=C([O-])c1cccc(C(=O)[O-])n1.[Ti+4] | 3.69 | > 100 | 2.98 | > 100 | – | – | 3.36 | > 100 | 2.51 | 6.47 | 2.26 | > 100 | – | – | 3.18 | > 100 | 2.03 | 5.06 | > 100 | 3.93
13 | COc1ccc(N2C(=O)CC(Cl)C2=O)cc1 (stereo unspecified) | – | 32.7 | – | 50.6 | – | – | – | – | – | 73.7 | – | 33 | – | > 100 | – | > 100 | – | 48.5 | – | –
14 | C=CCC(N[C@H](CO)c1ccccc1)c1ccc2ccccc2n1 (stereo partly specified) | > 100 | > 100 | > 100 | > 100 | > 100 | > 100 | > 100 | > 100 | – | – | > 100 | > 100 | > 100 | > 100 | > 100 | > 100 | > 100 | > 100 | > 100 | > 100
15 | O=S(=O)(N/N=C/c1ccc(/C=N/NS(=O)(=O)c2ccccc2)cc1)c1ccccc1 | – | > 100 | – | > 100 | – | 90.2 | – | > 100 | – | 64.8 | – | > 100 | – | > 100 | – | > 100 | – | 66.8 | – | –
16 | CCCCOC(=O)NC(=O)c1cn(CCCOC(=O)CCCCCCCCC(=O)OCCCn2cc(C(=O)NC(=O)OCCCC)c(=O)[nH]c2=O)c(=O)[nH]c1=O | – | > 100 | – | > 100 | – | > 100 | – | > 100 | – | > 100 | – | > 100 | – | > 100 | – | > 100 | – | > 100 | – | –
17 | O=[N+]([O-])c1cccc(C2N3CCCCC3[C@@H]3c4[nH]c5ccccc5c4CCN23)c1 (stereo partly specified) | – | 27.6 | – | – | – | 41 | – | – | – | 36.2 | – | 25.6 | – | 22 | – | 45.5 | – | 25.3 | > 100 | –
18 | CCN(CC)CCC(=O)NC1c2ccc(Cl)cc2Oc2c(C)cccc21 (stereo unspecified) | – | 35.5 | – | 39 | – | 37 | – | 30.4 | – | 40.8 | – | 21.5 | – | – | – | 33.3 | – | 31.5 | – | –
19 | CC(=O)c1cccc(N2COC(C)(C)c3nc4ccccc4n3C2)c1 | – | > 100 | – | > 100 | – | > 100 | – | > 100 | – | > 100 | – | > 100 | – | > 100 | – | > 100 | – | > 100 | – | –
